Results reported in patent US20080269053A1, “Amino Acid Compositions and Methods of Using as Fertilizer” (priority 2007, published 2008).

Tests used:
Bermuda grass [1] = assay: Turfgrass quality after true foliar application, Bermuda grass fairways; assay type: in vivo, Cynodon spp.; settings: mean over seven weeks
Description: (§1) True foliar applications were studied with Tall Fescue grass. Normal foliar rates of 0.5, 1.0 and 3.0 lb nitrogen per 1000 sq ft were used with water volumes in the range of 0.5 to 2.0 gallons per 1000 sq ft (for comparison non-foliar, normal liquid spray applications are typically more than 4.0 gallons of water per 1000 sq ft.) Results are presented in FIG. 15 for mean data taken during a 5 week period. […] However, as true application rates are ⅛ the 1× rate, burn potential for foliar applications is limited.
(§2) True foliar applications were studied with Bermuda grass in Fairways at the rates used in EXAMPLE 9. Results for mean data averaged over seven weeks for burn rate and turfgrass quality are presented in FIGS. 17 and 18, respectively. […] Lysine HCl had 3-5% burn levels depending upon the rate of application.

Creeping bentgrass [2] = assay: Phytotoxicity rating, creeping bentgrass fairways; assay type: in vivo, Agrostis
Description: Creeping bentgrass is a major choice for fairways, golf greens and tees in the cool-temperate zone. It has the ability to withstand close mowing and is very “aggressive” which allows for quick recovery from injuries. Creeping bentgrass was fertilized in Fairways substantially the same as described in example 1 at three different rates: half, full and 3× normal rates (0.5, 1.0 and 3.0 lbs nitrogen/1000/month) applied on a monthly basis. Turfgrass quality ratings were taken every month from June through November along with “color” and “phytotoxicity” ratings. Turfgrass quality and toxicity were measured on a 1-9 visual basis with 9 representing the highest quality turf or most injury/burn to the turfgrass. Fairways toxicity ratings and turfgrass quality ratings are shown in FIGS. 10 and 11, respectively. The most crucial months with regard to fertilizer application toxicity are the mid-summer months of July and August due to hotter and more humid conditions which typically amplify any potential for fertilizer “burn” injury.

Kentucky blue grass = assay: Turfgrass quality rating, Kentucky blue grass lawns; assay type: in vivo, Poa pratensis; settings: 1.0 lb nitrogen per 1000 sq ft per month
Protocol: Kentucky blue grass is often used as a turfgrass species in the cool, temperature zone as a blend of varieties or within specialized “mixes” created for various geographical locations. In this embodiment, Kentucky blue grass was fertilized under a normal application rate of 1.0 lb nitrogen per 1000 sq ft per month in high quality, high maintenance lawns. Turfgrass quality and toxicity were measured on a 1-9 visual basis with 9 representing the highest quality turf or the most injury, respectively.

Creeping bentgrass [3] = assay: Phytotoxicity rating, creeping bentgrass greens; assay type: in vivo, Agrostis; settings: bi-weekly application
Protocol: (§3) Creeping bentgrass is a major choice for fairways, golf greens and tees in the cool-temperate zone. It has the ability to withstand close mowing and is very “aggressive” allowing for quick recovery from injuries. It was fertilized in greens at half, full and […] rate of application (0.063, 0.125 and 0.25 lbs nitrogen/1000 sq ft) on a bi-weekly basis. Turfgrass quality and toxicity were measured on a 1-9 visual basis, with 9 representing the highest quality turf or the most injury respectively. Fairways toxicity ratings and turfgrass quality ratings are shown in FIGS. 12 and 13, respectively.

Ultra-Dwarf Bermudagrass = assay: Turfgrass quality rating, Ultra-Dwarf Bermudagrass golf greens; assay type: in vivo, Cynodon spp.; settings: normal 0.125 lb nitrogen/week rate
Description: Ultra-dwarf bermudagrass is typically mown at ⅛ inch or lower and fertilized on a weekly basis which is termed “spoon feeding”. Lysine HCl, liquid lysine, Milogranite and urea were applied under substantially the same conditions as described in Example 1. Overall turf quality was rated weekly using a visual scale of 1-9 with 9 representing perfect turf. Ratings higher than 6.0 are considered acceptable while any rating below 6.0 is unacceptable.

Bermuda grass [4] = assay: Burn after true foliar application, Bermuda grass fairways; assay type: in vivo, Cynodon spp.
Description: as §1, §2

Creeping bentgrass [5] = assay: Turfgrass quality after true foliar application, creeping bentgrass greens and tees; assay type: in vivo, Agrostis; settings: averaged over six weeks
Description: as §1
True foliar applications were studied with creeping bentgrass on greens and tees at the rates used in Example 9.

Bermudagrass = assay: Turfgrass quality rating, Bermudagrass in golf course fairway conditions; assay type: in vivo, Cynodon spp.; settings: monthly 0.5-3.0 lbs nitrogen/1000 sq ft
Protocol: (§4) Bermudagrass was grown and maintained in golf course fairway conditions. The bermudagrass was mown at a ½ inch height of cut and fertilized monthly between 0.5 and 3.0 lbs nitrogen per 1000 square feet. Lysine HCL and liquid lysine in aqueous solutions were compared with inorganic, quick release/response urea and the organic industry standard Milorganite. Urea, lysine HCl and liquid lysine were spray/liquid applied, while Milorganite was applied as a solid granular product.
Overall turf quality was rated weekly using a visual scale of 1-9 with 9 representing perfect turf (rarely attained, if ever). Ratings higher than 6.0 are considered acceptable while any rating below 6.0 is considered unacceptable. […] All fertilizers responded with acceptable turf ratings at all application rates, but lysine HCL trended better.
as §4, with “HCl applied as a solid granular was” for “HCL and liquid lysine in aqueous solutions were”, “Urea was” for “Urea, lysine HCl and liquid lysine were”
Lysine HCL was applied as a solid granular to compare with spray applied lysine HCL and liquid lysine. […]

Creeping bentgrass [6] = assay: Turfgrass quality rating, creeping bentgrass greens; assay type: in vivo, Agrostis; settings: creeping bentgrass greens, 0.063, 0.125 and 0.25 lbs nitrogen/1000 sq ft bi-weekly
Protocol: as §3

Solubility in water = assay type: physicochemical; settings: 25° C., read-out: solubility in H2O
St. Augustine grass = assay: Turfgrass quality rating, St. Augustine grass fertilized monthly; assay type: in vivo, Stenotaphrum secundatum
Description: St. Augustine grass was fertilized monthly at rates of between 0.5 and 3.0 lbs nitrogen/1000 square feet with lysine HCL and Liquid Lysine, which were compared with inorganic, quick release/response urea and the organic industry standard Milorganite. Urea, lysine HCl, and liquid lysine were spray/liquid applied, while Milorganite was applied as a solid granular product.
Overall turf quality was rated weekly using a visual scale of 1-9 with 9 representing perfect turf. Ratings higher than 6.0 are considered acceptable, while any rating below 6.0 is unacceptable.

Row | Structure (SMILES) | turfgrass quality rating (Bermuda grass [1]) | phytotoxicity (injury) rating, visual 1-9 (Creeping bentgrass [2]; July) | turfgrass quality (Kentucky blue grass) | toxicity rating, visual 1-9 (Creeping bentgrass [3]; June and July) | overall turf quality performance (Ultra-Dwarf Bermudagrass) | burn level (Bermuda grass [4]; depending upon rate of application, mean over seven weeks) | burn potential (Bermuda grass [4]; turfgrasses recover quickly) | turfgrass quality rating (Creeping bentgrass [5]) | overall turf quality (visual scale 1-9) (Bermudagrass; applied as solid granular) | total seasonal turfgrass quality (visual scale 1-9) (Bermudagrass; aqueous spray applied) | turfgrass quality rating (Creeping bentgrass [6]) | solubility (Solubility in water) | overall turfgrass quality and residual activity (St. Augustine grass; half-rate of 0.5 lb nitrogen, ratings higher than 6.0 acceptable) | overall turfgrass quality (visual scale 1-9) (St. Augustine grass; monthly 0.5-3.0 lbs nitrogen/1000 sq ft, spray applied, growing season, versus urea and Milorganite) | overall turfgrass quality rating (St. Augustine grass; standard 1.0 lb nitrogen rate, compared to urea and milorganite) | phytotoxicity (injury) rating, visual 1-9 (Creeping bentgrass [2]; August) | toxicity rating, visual 1-9 (Creeping bentgrass [3]; August)
1 | Cl.NCCCC[C@H](N)C(=O)O [lysine HCl, lysine monohydrochloride] | better than Coron and control plots | insignificant level of injury | marginally better than urea | Slight and insignificant levels of toxicity | statistically the same as that of urea | 3-5% | high burn potential | statistically equal qualities as Coron | as effective as or more effective than Milorganite and urea | seasonally better turfgrass quality at all rates tested compared to urea and milorganite | slightly better than the blended synthetic products and Milogranite | 500 to 600 mg/mL | acceptable overall turfgrass quality and residual activity | trended better than urea and milorganite | noticeably higher |  | 
2 | NC(N)=O [urea, reference compound] |  |  |  |  |  |  |  |  |  |  |  |  |  |  |  | significantly more injury than liquid lysine and lysine HCl | significantly higher toxicity levels
